Experimental data from article PMC12833730, “Discovery of a First‐in‐Class Covalent Allosteric SHP1 Inhibitor with Immunotherapeutic Activity” (Angewandte Chemie (International Ed. in English), 2025).
Entries after “also recorded” stand apart in the source; their conditions may differ.

Experiments:
SHP1 = biological target: T1, SHP1 (Homo sapiens, UniProt P29350); assay: Thermal shift assay; type: binding; settings: vs DMSO control
T1 construct: SHP1, residues 245-543; made in house; host or cells: E. coli BL21(DE3)
Text: Building on the results from the SAR “by‐catalog” study, the following medicinal chemistry effort was prioritized on a systematic survey of the central phenyl scaffold, the sulfonamide linker, and the distal aryl moiety with the goal of a multiparameter optimization of potency and selectivity for SHP1 inhibition as well as drug‐like properties such as aqueous solubility and cell permeability. Additionally, given the crucial requirement for targeted covalent inhibitors to maintain tempered reactivity that enables selective target engagement and reduces cross‐reactivity to by‐standing nucleophiles in the cellular milieu,^[ [74], [75] ^] the medicinal chemistry campaign also sought to lower SHP1 covalent inhibitor reactivity with GSH and cytotoxicity. Careful assessment and evaluation of the SAR and other desirable drug‐like attributes of all synthesized molecules led to the identification of M029 (Figure 2a and Figure S2D, manuscript in preparation). […] To determine the selectivity of M029 for SHP1, we measured the IC50 value for M029‐mediated inhibition of a number of PTPs after a 60‐min preincubation. […]
The mixtures were centrifuged to remove the unfolded SHP1 proteins, and the supernatants were spiked with a control protein CDC14A, followed by loading into SDS‐PAGE gels to quantify the relative SHP1 level.

[1] = system: LCK, PLCγ and ERK1/2 phosphorylation in Jurkat T cells; assay: TCR-LCK signaling immunoblot; type: cell-based; settings: dose response
Description: Supernatants from lysed cells were reduced, treated with iodoacetamide to cap thiol residues, and digested by trypsin for bottom‐up proteomics analysis. […] LCK is the direct substrate of SHP1 and ERK1/2, and PLCγ is the downstream effector protein of LCK‐mediated TCR signaling. […] Statistical analyses were performed with Graphpad Prism software 10.4.2 through the one‐way ANOVA test using Turkey post‐hoc comparison. ****p < 0.0001 was considered significant.
To further confirm M029 cellular target engagement, we investigated the effect of M029 on T cell function. SHP1 plays a negative role in T cells, and deletion of SHP1 in T cells lowers the activation threshold and enhances antitumor immunity.^[ [30], [31], [32], [33] ^] Mechanistically, SHP1 attenuates T cell receptor (TCR) signaling via dephosphorylation of the lymphocyte‐specific protein tyrosine kinase LCK.^[ [31], [84], [85], [86] ^] T cell activation leads to increased expression and secretion of interleukin 2 (IL‐2)^[ [87] ^] while the removal of SHP1 in T cells enhances IL‐2 production, cell proliferation, and cytolysis capacity.^[ [30], [32] ^] Accordingly, we sought to assess the impact of targeting SHP1 with M029 on TCR‐LCK signaling and T cell activation. […] M029 also dose‐dependently promoted IL‐2 production (Figure 4c). […] These findings corroborate that the observed increase in LCK phosphorylation and its downstream signaling indeed resulted from SHP1 inhibition by M029.
Immunoblotting: Cultured cells were lysed with ice-cold lysis buffer (50 mM Tris, pH 8.0, 150 mM NaCl, 10% Glycerol, 1% Triton-X-100) supplied with phosphatase inhibitor (Bimake) and protease inhibitor mixture (Roche Applied Science). Equal amounts of protein were resolved by SDS-PAGE, transferred to a nitrocellulose membrane, and subjected to immunoblotting. […]

MC38 tumors = MC38 tumors in nude mice; type: in vivo; settings: 25 mg/kg
Text: To further establish whether the inhibitory effects of M029 on tumor progression could be attributable to enhanced antitumor immune responses, we treated MC38 tumors in nude mice. […] To evaluate the importance of CD8^+ T and NK cells in M029‐induced antitumor activity, we induced CD8^+ T cell or NK cell depletion in the MC38 syngeneic model using anti‐CD8 or anti‐NK1.1 antibodies as described in Figure 6c. […] These findings are consistent with the known role of SHP1 in T cells and with our in vitro data that indicate M029 enhances T cell activation with no direct effect on tumor cells. […] These findings align with previous reports that activated CD8^+ T cells recruit NK cells to tumors through releasing cytokines and chemokines like IFN‐γ.^[ [92] ^] The observed changes in immune activity induced by M029, such as increased tumor infiltration of cytotoxic CD8^+ T cells, enhanced T cell cytotoxicity and effector function, as well as improved NK cell infiltration and activation, collectively contribute to the anticancer effects exerted by M029 treatment.
Figure 6 Cytotoxic T‐cell activity is necessary for M029 antitumor activity. […] C57BL/6 mice were injected with anti‐CD8 or anti‐NK1.1 antibodies every 3–4 days for 8 days after tumor inoculation. […]

T1 sequence (P29350 245-543): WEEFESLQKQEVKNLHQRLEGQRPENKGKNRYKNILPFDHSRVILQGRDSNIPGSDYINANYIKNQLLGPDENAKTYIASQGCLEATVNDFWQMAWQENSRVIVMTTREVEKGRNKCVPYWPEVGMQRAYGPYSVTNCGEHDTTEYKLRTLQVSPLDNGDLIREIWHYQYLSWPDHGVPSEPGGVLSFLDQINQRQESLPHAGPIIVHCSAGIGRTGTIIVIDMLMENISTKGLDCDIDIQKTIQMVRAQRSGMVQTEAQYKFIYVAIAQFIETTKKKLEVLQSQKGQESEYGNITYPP

N#Cc1ccsc1NS(=O)(=O)c1ccc(NC(=O)CCl)cc1 [M029, 2-Chloro-N-(4-(N-(3-cyanothiophen-2-yl)sulfamoyl)phenyl)acetamide]
decrease in SHP1 protein melting temperature (SHP1): 1.8 °C | TCR-mediated phosphorylation of LCK, PLCγ and ERK1/2 [1]: upregulation; also recorded: dose dependently increased | MC38 tumor growth in nude mice (MC38 tumors): ineffective in inhibiting tumor growth; also recorded: no significant
